Reference: article PMC4155245, “Clostridium difficile has a single sortase, SrtB, that can be inhibited by small-molecule inhibitors” (BMC Microbiology, 2014)
Like-named read-outs stand apart in the source and are kept apart here.

Biological target: T1, SrtB (sortase B, CD630_27180) (Clostridioides difficile, UniProt Q183F3)
T1 construct: SrtBΔN26 (N-terminal transmembrane residues 2–25 replaced with a six-histidine tag)
Test: FRET peptide cleavage assay (d-PVPPKTGDS-e) with purified recombinant SrtBΔN26
Assay type: biochemical

T1 sequence (Q183F3 entry or part of it): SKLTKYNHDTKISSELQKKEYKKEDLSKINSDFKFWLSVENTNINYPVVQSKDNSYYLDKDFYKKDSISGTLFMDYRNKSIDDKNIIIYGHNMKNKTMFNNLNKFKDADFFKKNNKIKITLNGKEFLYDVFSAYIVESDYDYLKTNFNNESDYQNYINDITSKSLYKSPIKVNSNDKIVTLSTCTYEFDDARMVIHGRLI

Compound	IC50 [µM]	IC50 (read-out: IC50) [µM]
C[N+](C)(C)CCSS(C)(=O)=O [MTSET, 2-(trimethylamonium)ethylmethanethiosulfonate]	287 ± 16.6	–
LSHTM-0040 [LSHTM40]	–	63.1 ± 8.8
LSHTM-0052 [LSHTM52]	–	44.1 ± 6.9
LSHTM-0050 [LSHTM50]	–	60.1 ± 4.7
